Measurements taken from patent US4173636A, “Decahydroquinolines, pharmaceutical compositions and methods of use” (Labaz, priority 1975, dated 1979).
Like-named read-outs stand apart in the source and are kept apart here.

How the values were obtained:
contorsions [1] = assay: KOSTER acetic acid contorsion test, intragastric; format: in vivo, mice; details: Mus musculus, po
Method: The first test was carried out according to the technique of KOSTER (Fed. Proc. 18, 412, 1959) on batches of 20 mice which had been deprived of food for 18 hours.
Each batch of animals with the exception of the controls was given an intragastric dose of the compound to be studied so that each batch received a higher dose than the preceding batch. Thirty minutes after administration, the animals of each batch, as well as the control animals, were given intraperitoneally 0.2 ml. of a 0.25% acetic acid solution per 10 g. of body-weight.
During the 20 minutes following the injection of acetic acid, the number of characteristic contorsions made by the animals was noted. The absence of contorsions corresponds to animals under the influence of analgesia.
Note was taken of the AD50, i.e. the dose of the compound under study which provoked analgesia in half of the animals treated.

[2] = tested on: squeak at threshold-voltage (pain); assay: NILSEN electric tail stimulation test, intragastric; format: in vivo, mice; details: Mus musculus, po
Method: The second test was carried out according to the technique of NILSEN (Acta Pharmacol. et toxicol. 18, 10, 1961) on batches of 10 mice.
The animals were connected to a source of electric current by means of two electrodes inserted into the tail.
The threshold-voltage was then determined, i.e. the minimum voltage which, in the course of two successive shocks, caused the animals to squeak at least one time out of two. After this, the compound to be studied was administered by intragastric route.
Note was taken of the dose of compound (AD50) which suppressed the squeak in half of the treated animals.

contorsions [3] = assay: SIEGMUND phenylbenzoquinone contorsion test; format: in vivo, male mice; details: Mus musculus
Method: The third test was carried out according to the technique of SIEGMUND and al (Proc. Soc. Exp. Biol. Med. 95, 729, 1957) on batches of 10 male mice.
A typical syndrome was produced in the animals by intraperitoneal injection of 0.25 ml. of a 0.02% aqueous solution of 2-phenyl-1,4-benzoquinone (phenylbenzoquinone).
The syndrome in question is characterized by intermittent contractions of the abdomen, twisting and turning of the trunk and extension of the hind legs. Note was taken of the number of movements occurring over a period of 30 minutes starting 15 minutes after the injection of phenylbenzoquinone.
The compound to be tested was injected 30 minutes before the phenylbenzoquinone in such a way that each batch received a higher dose than the preceding batch, a control batch receiving only the phenylbenzoquinone.
Note was taken of the AD50, i.e. the dose of substance which reduced at least by half the number of contorsions in half of the animals, as compared to the number of contorsions observed in the control group.

pain-threshold voltage = assay: CHARLIER electric stimulation pain-threshold test, intragastric; format: in vivo, rats; details: Rattus norvegicus, po
Method: The fourth test was carried out according to the technique of CHARLIER and al (Arch. int. Pharmacodyn. 134, 306, 1961) on batches of 10 rats.
The animals were connected to a source of electric current by means of two electrodes of which one was attached to the tail and the other maintained in the rectum.
The pain-threshold voltage was then determined for each rat by passing a current of 2 volts and increasing the current by one volt at a time until the animal gave a squeak. This control test was repeated three times at intervals of 15 minutes. The compound under study was then administered by intragastric route and, starting from the threshold-voltage already determined note was taken, every 10 minutes for 2 hours, of the voltage which caused the animals to squeak.
The results were noted according to the WINTER and FLATAKER scale (J. Pharmacol. Exp. Therap. 98, 305, 1950) and the AD's 50 obtained are listed in the Table given hereunder: […]

[4] = tested on: squeak at threshold-voltage (pain); assay: animal or person; format: in vivo, mice; details: Mus musculus, sc, read-out: AD50
[5] = tested on: reaction time (flick-tail); assay: animal or person; format: in vivo, male rats; details: Rattus norvegicus, sc, read-out: AD50
contorsions [6] = assay: animal or person; format: in vivo, mice; details: Mus musculus, sc, read-out: AD50

Compound: CC(=O)Oc1ccccc1C(=O)O [Acetylsalicyclic acid, Acetylsalicylic acid]
- ED50 (contorsions [1]; read-out: AD50): 150 mg/kg
- ED50 ([2]; read-out: AD50): 1100 mg/kg
- ED50 (contorsions [3]; read-out: AD50): 50 mg/kg
- ED50 (pain-threshold voltage; 2 h, read-out: AD50): 1300 mg/kg

Compound: Cc1cc(=O)n(-c2ccccc2)n1C [Antipyrine]
- ED50 (contorsions [1]; intragastric, mice, 30 min before 0.25% acetic acid i.p., analgesia in half of the animals, read-out: AD50 (the source's name)): 120 mg/kg
- ED50 ([2]; intragastric, mice, suppressed the squeak in half of the treated animals, read-out: AD50 (the source's name)): 400 mg/kg
- ED50 (contorsions [3]; injected 30 minutes before phenylbenzoquinone, male mice, contorsions reduced at least by half in half of the animals, read-out: AD50 (the source's name)): 100 mg/kg
- ED50 (pain-threshold voltage; intragastric, rats, WINTER and FLATAKER scale, 2 hours, read-out: AD50 (the source's name)): 500 mg/kg

Compound: O=C(OCC(O)CO)c1ccccc1Nc1ccnc2cc(Cl)ccc12 (stereo not shown) [Glafenine]
- ED50 (contorsions [1]; read-out: AD50): 110 mg/kg
- ED50 (contorsions [3]; read-out: AD50): 325 mg/kg

Compound: CC(C)=CCN1CCC2(C)c3cc(O)ccc3CC1C2C (stereo not shown) [Pentazocine]
- ED50 (contorsions [1]; read-out: AD50): 45 mg/kg
- ED50 [4]: 12 mg/kg
- ED50 [5]: 3 mg/kg
- ED50 (contorsions [6]): 5 mg/kg

Compound: CCOC(=O)C1(c2ccccc2)CCN(C)CC1 [Pethidine]
- ED50 (pain-threshold voltage; 2 h, read-out: AD50): 50 mg/kg
- ED50 [4]: 7 mg/kg
- ED50 [5]: 5.5 mg/kg
- ED50 (contorsions [6]): 7 mg/kg

Compound: CCOc1ccc(NC(C)=O)cc1 [Phenacetine]
- ED50 (contorsions [1]; read-out: AD50): 160 mg/kg
- ED50 ([2]; read-out: AD50): 450 mg/kg
- ED50 (contorsions [3]; read-out: AD50): 80 mg/kg
- ED50 (pain-threshold voltage; 2 h, read-out: AD50): 750 mg/kg
